Experimental data from PMC3959744 (Journal of medicinal chemistry, 2013).
Changes are numbered by the printed parent chain. Values joined by “and” are separate entries in the source; they are usually repeats but may differ in a detail not shown here. Equal values may be shown once. “Also recorded” adds a separate entry of the source.

Key:
[1] = system: LNCaP cells; assay: Cell growth inhibition; assay type: cell-based, human
[2] = system: DHT mediated AR transcription in LNCaP cells; assay: Transcriptional activation luciferase assay; assay type: cell-based, human; details: 10 μM compound, 10 nM DHT, 24 h
[3] = target: T1, AR (Homo sapiens, UniProt P10275, T878A); assay type: cell-based; details: LNCaP cells, 15 μM, 24 h, Western blot
T1 sequence (P10275 1-920 T878A): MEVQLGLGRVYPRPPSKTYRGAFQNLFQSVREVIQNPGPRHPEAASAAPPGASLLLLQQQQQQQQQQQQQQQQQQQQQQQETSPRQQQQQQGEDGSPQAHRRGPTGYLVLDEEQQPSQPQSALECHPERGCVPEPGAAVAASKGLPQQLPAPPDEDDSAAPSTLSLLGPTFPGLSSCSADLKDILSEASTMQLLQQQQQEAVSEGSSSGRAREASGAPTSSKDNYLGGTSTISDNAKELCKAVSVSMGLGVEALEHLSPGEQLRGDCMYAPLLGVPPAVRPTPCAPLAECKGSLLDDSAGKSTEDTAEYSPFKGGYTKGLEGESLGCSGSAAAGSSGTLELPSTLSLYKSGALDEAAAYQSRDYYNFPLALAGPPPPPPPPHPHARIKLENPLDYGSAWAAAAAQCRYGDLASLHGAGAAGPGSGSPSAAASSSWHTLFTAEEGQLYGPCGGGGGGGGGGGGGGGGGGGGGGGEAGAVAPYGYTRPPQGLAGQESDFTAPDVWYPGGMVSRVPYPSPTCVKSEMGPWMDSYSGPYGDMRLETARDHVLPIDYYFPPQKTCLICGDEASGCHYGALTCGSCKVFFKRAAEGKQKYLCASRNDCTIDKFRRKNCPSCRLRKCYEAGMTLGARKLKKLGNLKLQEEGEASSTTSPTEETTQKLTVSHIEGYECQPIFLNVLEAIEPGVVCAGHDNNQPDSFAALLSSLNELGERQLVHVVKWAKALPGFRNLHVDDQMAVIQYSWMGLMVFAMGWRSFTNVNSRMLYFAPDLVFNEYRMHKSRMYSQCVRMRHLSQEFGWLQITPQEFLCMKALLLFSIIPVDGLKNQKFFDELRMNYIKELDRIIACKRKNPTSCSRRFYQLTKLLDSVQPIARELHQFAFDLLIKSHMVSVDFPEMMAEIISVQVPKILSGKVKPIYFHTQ

[4] = target: T1, AR; assay: Immunocytochemical analysis of AR expression in LNCaP cells; details: 5 μM, 48 h
[5] = target: T2, full-length and truncated AR (AR-3) (Homo sapiens, UniProt P10275); assay: Western blot analysis of fAR and tAR-3 expression in CWR22Rv1 cells; details: 15 μM, 24 h
T2 sequence (P10275 1-920): T1 sequence (P10275 1-920 T878A) with A878T

[6] = Solubility in ethanol or DMSO; assay type: physicochemical; details: prevented biological testing

C[C@]12CC[C@H](OC(=O)n3ccnc3)CC1=CC[C@@H]1[C@@H]2CC[C@]2(C)C(n3cnc4ccccc43)=CC[C@@H]12 [Compound 47, 3β-(1H-Imidazole-1-carboxylate)-17-(1H-benzimidazol-1-yl)-androsta-5,16-diene]
fold more potent than compound 5, anti-proliferative activity ([1]; from GI50): 4 fold and ~ 4 fold
inhibition of DHT mediated transcription [2]: 65–100%
effect on AR protein expression (AR degradation / ARD activity) [3]: most potent
AR levels in the nucleus [4]: significant decrease in AR levels in the nucleus
effect on full-length and truncated AR (AR-3) expression [5]: could degrade both full-length and truncated AR; also recorded: significant down-regulation of both full-length and truncated AR

C[C@]12CC/C(=N\OCc3ccccc3)C=C1CC[C@@H]1[C@@H]2CC[C@]2(C)C(n3cnc4ccccc43)=CC[C@@H]12 (mixture of isomers) [Compound 39, 3-((EZ)-(O-Phenylmethyl)oxime)-17-(1H-Benzimidazol-1-yl)-androsta-4,16-diene]
inhibition of DHT mediated transcription [2]: 65–100%

C[C@]12CC[C@H](OC(=O)c3cccnc3)CC1=CC[C@@H]1[C@@H]2CC[C@]2(C)C(n3cnc4ccccc43)=CC[C@@H]12 [Compound 42, 3β-(Pyridine-3-carboxylate)-17-(1H-benzimidazol-1-yl)-androsta-5,16-diene]
solubility in ethanol or DMSO [6]: limited solubilities in ethanol or DMSO

CO/N=C1/C=C2CC[C@@H]3[C@H](CC[C@]4(C)C(n5cnc6ccccc65)=CC[C@@H]34)[C@@]2(C)CC1 (mixture of isomers) [Compound 38, 3-((EZ)-O-Methyloxime)-17-(1H-Benzimidazol-1-yl)-androsta-4,16-diene]
inhibition of DHT mediated transcription [2]: 65–100%

C[C@]12CC[C@H](O)CC1=CC[C@@H]1[C@@H]2CC[C@]2(C)C(n3cnc4cc(C#N)ccc43)=CC[C@@H]12 [Compound 18, 3β-Hydroxy-17-(5(6)-nitrile-1H-benzimidazol-1-yl)-androsta-5,16-diene]
GI50 ([1]; read-out: GI50, C-17 modified compounds, MTT, 7 days, at least three independent experiments, SEM < 10%): 2810 nM
effect on AR protein expression (AR degradation / ARD activity) [3]: diminished AR down-regulation (ARD) activity

C[C@]12CC/C(=N\Oc3ccccc3)C=C1CC[C@@H]1[C@@H]2CC[C@]2(C)C(n3cnc4ccccc43)=CC[C@@H]12 (mixture of isomers) [Compound 37, 3-((EZ)-O-Phenyloxime)-17-(1H-Benzimidazol-1-yl)-androsta-4,16-diene]
solubility in ethanol or DMSO [6]: limited solubility in ethanol or DMSO

C[C@]12CC[C@H](OS(C)(=O)=O)CC1=CC[C@@H]1[C@@H]2CC[C@]2(C)C(n3cnc4ccccc43)=CC[C@@H]12 [Compound 34, 3β-Mesyloxy-17-(1H-benzimidazol-1-yl)-androsta-5,16-dien]
inhibition of DHT mediated transcription [2]: 65–100%

C[C@]12CC[C@H](OC(=O)n3cncn3)CC1=CC[C@@H]1[C@@H]2CC[C@]2(C)C(n3cnc4ccccc43)=CC[C@@H]12 [Compound 49, 3β-(1H-1,2,4-Triazole-1-carboxylate)-17-(1H-benzimidazol-1-yl)-androsta-5,16-diene]
effect on AR protein expression (AR degradation / ARD activity) [3]: significant up-regulation of AR

C[C@]12CC[C@H](OC(=O)c3ccccn3)CC1=CC[C@@H]1[C@@H]2CC[C@]2(C)C(n3cnc4ccccc43)=CC[C@@H]12 [Compound 41, 3β-(Pyridine-2-carboxylate)-17-(1H-benzimidazol-1-yl)-androsta-5,16-diene]
solubility in ethanol or DMSO [6]: limited solubilities in ethanol or DMSO

C[C@]12CCC(=NO)C=C1CC[C@@H]1[C@@H]2CC[C@]2(C)C(n3cnc4ccccc43)=CC[C@@H]12 (mixture of isomers) [Compound 36, 3-((EZ)-Hydroximino)-17-(1H-Benzimidazol-1-yl)-androsta-4,16-diene]
inhibition of DHT mediated transcription [2]: 65–100%
effect on full-length and truncated AR (AR-3) expression [5]: could degrade both full-length and truncated AR; also recorded: significant down-regulation of both full-length and truncated AR

COc1ccc(NCC2=C(n3cnc4ccccc43)[C@@]3(C)CC[C@H]4[C@@H](CC=C5C[C@@H](O)CC[C@@]54C)[C@@H]3C2)cc1OC [Compound 31, 3β-Hydoxy-17-(1H-benzimidazol-1-yl)-16-(((3,4-dimethoxyphenyl)amino)methyl)-androsta-5,16-diene]
effect on AR protein expression (AR degradation / ARD activity) [3]: significant loss of ARD
effect on full-length and truncated AR (AR-3) expression [5]: significant down-regulation of both full-length and truncated AR

C[C@]12CC[C@H](O)CC1=CC[C@@H]1[C@@H]2CC[C@]2(C)C(n3cnc4ccccc43)=C(CNc3ccccc3)C[C@@H]12 [Compound 28, 3β-Hydoxy-17-(1H-benzimidazol-1-yl)-16-((phenylamino)methyl)-androsta-5,16-diene]
inhibition of DHT mediated transcription [2]: 65–100%
effect on AR protein expression (AR degradation / ARD activity) [3]: significant loss of ARD

C[C@]12CC[C@H](OC(=O)c3ccncc3)CC1=CC[C@@H]1[C@@H]2CC[C@]2(C)C(n3cnc4ccccc43)=CC[C@@H]12 [Compound 43, 3β-(Pyridine-4-carboxylate)-17-(1H-benzimidazol-1-yl)-androsta-5,16-diene]
effect on full-length and truncated AR (AR-3) expression [5]: could degrade both full-length and truncated AR

Cc1nccn1C(=O)O[C@H]1CC[C@@]2(C)C(=CC[C@@H]3[C@@H]2CC[C@]2(C)C(n4cnc5ccccc54)=CC[C@@H]32)C1 [Compound 48, 3β-(2-Methyl-1H-imidazole-1-carboxylate)-17-(1H-benzimidazol-1-yl)-androsta-5,16-diene]
fold decrease in anti-proliferative activity relative to 47 ([1]; from GI50): 6 fold

COc1ccc2ncn(C3=CC[C@H]4[C@@H]5CC=C6C[C@@H](O)CC[C@]6(C)[C@H]5CC[C@]34C)c2c1 [Compound 19, 3β-Hydroxy-17-(6-methoxy-1H-benzimidazol-1-yl)-androsta-5,16-diene]
effect on AR protein expression (AR degradation / ARD activity) [3]: no modulation of ARDA

CC(C)CCNCC1=C(n2cnc3ccccc32)[C@@]2(C)CC[C@H]3[C@@H](CC=C4C[C@@H](O)CC[C@@]43C)[C@@H]2C1 [Compound 25, 3β-Hydoxy-17-(1H-benzimidazol-1-yl)-16-((isopentylamino)methyl)-androsta-5,16-diene]
inhibition of DHT mediated transcription [2]: 65–100%
effect on AR protein expression (AR degradation / ARD activity) [3]: significant loss of ARD
